The text below walks through data of patent publication US20160082105A1, “Antibody Buffering of a Ligand in Vivo” (ARROWSMITH TECHNOLOGIES CORPORATION, priority 2004, published 2016).

How the values of data set [1] were obtained: Samples were prepared for injection: 104 pmol anti-Ox antibody and 52 pmol Ox; 104 pmol of D1.3 control antibody and 52 pmol Ox; and 52 pmol Ox alone. Each sample was diluted to 10 μl with sterile PBS. The samples were warmed to 37° C., and then infused over 1 minute through the intraventricular or cisternal cannula in Sprague-Dawley rats. The end of the infusion was designated as time zero (0). At various timepoints, 10 μl of CSF was withdrawn. For one set of rats, the 10 μl CSF was counted directly by placing it into 5 ml of Scintiverse II and counting in a Beckman LS6500 Scintillation Counter. For another set of rats, the 10 μl CSF was diluted into 100 μl ice cold PBS and used in bound vs. free Ox experiments described below.
The rat anti-mouse kappa antibody 187.1 (obtained from American Type Culture Collection (ATCC), Manassas, Va.) (Yelton et al., Hybridoma 1:5-11 (1981)) was isolated from spent culture medium and purified by passage over a Protein A-Sepharose affinity column. Ten grams of CNBr-activated Sepharose 4 Fast Flow (Amersham Biosciences) were washed and coupled with 187.1 according to manufacturer's protocol. Two mg 187.1 per 10 g of swelled resin were used.
During the antibody buffering experiments, the CSF plus ice cold PBS sample were loaded onto the 187.1 column immediately after the dilution. Application to the column of 3 ml of PBS in 0.5 ml increments was followed by application of 3 ml of 0.2 M glycine (pH 2.5) in 0.5 ml increments. All the PBS fractions and all the glycine fractions were collected separately for each timepoint and dried down in the SpeedVac. The residue was resuspended in 150 μl PBS and then transferred to a scintillation vial with 5 ml Scintiverse II for counting.
Samples of NQ11/7.12 and Ox were prepared and infused into the cisternal cannula of Sprague-Dawley rats from Charles River Laboratories as described above for the antibody buffering protocol. Ten μl of CSF was taken from the cisterna magna at time 1, 10, 20, 30, 60, 90 and 120 minutes. The 10 μl CSF samples were either counted directly or diluted into 100 μl ice cold PBS and loaded onto a 187.1 column to separate bound and free Ox. At 24 hours and at 48 hours following the first administration, 52 pmol Ox in 10 μl total volume (diluted with sterile PBS) was infused over 1 minute through the cisterna magna cannula. Timepoints were again taken and analyzed as above.
The principle of chemical equilibrium predicts that the Ox in the CSF should partition between free and antibody-bound forms, and that the free pool should be constantly replenished, staying at a concentration near the antibody's Kd. The Ox in the CSF samples from another set of rats was separated into bound and free forms by passage over an affinity column. […] Antibody-Ox complexes bound to the immobilized rat anti-mouse kappa antibody while free Ox eluted from the column with the PBS wash (free Ox fraction).

How the values of data set [2] were obtained: Samples were prepared for injection: 4.54 nmol anti-Ox antibody and 2.27 nmol Ox; 4.54 nmol D1.3 control antibody and 2.27 nmol Ox; or no antibody and 2.27 nmol Ox. Each sample was diluted to 1 ml with sterile PBS. The samples were warmed to 37° C., and then infused over 1 minute through the jugular vein cannula in Sprague-Dawley rats as described above. At various timepoints, 0.45 ml of blood was withdrawn and immediately centrifuged to separate out the plasma. 100 μl of plasma were counted directly by placing the plasma into 5 ml of Scintiverse II and counting in a Beckman LS6500 Scintillation Counter. 100 μl plasma was used in bound vs. free Ox experiments described below. For some rats, 0.1 ml of blood minus plasma was analyzed. These samples were first decolorized by incubating at 40° C. in 0.3 ml of Scintigest (Fisher Scientific):isopropanol (1:2 v/v) for one hour. Then 0.2 ml of 30% H2O2 was added dropwise, and the solution was incubated at room temperature for 15 minutes. Pipetting up and down was needed to break up some clumps. The solution was incubated at 40° C. before placing it into 5 ml of Scintiverse II. The samples were allowed to sit overnight before counting to reduce chemiluminescence. Control samples were prepared using known amounts of Ox to aid in analysis.
The rat anti-mouse kappa antibody 187.1 (see Example 1) was isolated from spent culture medium and purified by passage over a Protein A-Sepharose affinity column. Ten g of CNBr-activated Sepharose 4 Fast Flow (Amersham Biosciences) were washed and coupled with 187.1 according to manufacturer's protocol. Two mg 187.1 per 10 g of swelled resin were used.
During the antibody buffering experiments, 100 μl of plasma was loaded onto the 187.1 column immediately after centrifugation. Three ml of PBS followed by three ml of 0.2 M glycine (pH 2.5) were then applied onto the column as described in Example 1. All PBS fractions and all glycine fractions were collected separately for each timepoint and dried down in the SpeedVac. The residue was resuspended in 150 μl PBS and then transferred to a scintillation vial with 5 ml Scintiverse II for counting.
Samples of NQ11/7.12 and Ox were prepared and infused into Sprague-Dawley rats as described above. Blood samples (0.4 ml) were taken at time 1, 10, 20, 50, 90, and 120 minutes. 100 μl plasma were counted directly and 100 μl were placed on a 187.1 column to separate bound and free Ox. At 24 hours and again at 48 hours following the first administration, 2.27 nmol Ox in 0.5 ml PBS was infused over 1 minute through the jugular cannula. Timepoints were again taken and analyzed as above.
Bound and free forms of Ox in plasma fractions from the animals were separated on an affinity column. […] An immobilized rat anti-mouse kappa antibody was used to trap antibody-Ox complexes while free Ox eluted from the column with a PBS wash (free Ox fraction).
This is another data set of the same source.

Where [3] appears, read: Ox administered alone or with D1.3.

Where two headings read alike, the source gives them in different places.

In the case of `O=C(O)CCCNC=C1N=C(c2ccccc2)OC1=O` [Ox, 2-phenyl-oxazol-5-one-γ-amino butyrate], in data set [1] (setting [3]), the “decrease of free Ox concentration in CSF in an hour” value is listed as 500 fold, the “free Ox elimination half-life in CSF” value amounted to 0.61 min and the “initial free Ox concentration in CSF” value came out at 1.4 mM. Further, in data set [1] (Ox administered with NQ11/7.12), the “decrease of free Ox concentration in CSF over time” value is “less than 10 fold”, the “free Ox concentration in CSF after the decrease” value is on record as “approximately 6 nM”, the “free Ox elimination half-life in CSF” value amounted to 1.55 min and the “initial free Ox concentration in CSF” value was found to be 6e-05 mM. Besides, the “free Ox elimination in CSF, long term buffering” value in data set [1] (Ox alone re-administered at 24 hours and 48 hours after a single NQ11/7.12 + Ox cisternal infusion) is “slower elimination profile than Ox administered with D1.3”. Also, in data set [2] (setting [3]), the “free Ox elimination half-life in plasma” value turned out to be 6.0 ± 1 min and the “initial free Ox concentration in plasma” value came to 6.8 nM. In data set [2] (Ox administered with NQ11/7.12), the “free Ox concentration in plasma after an hour” value was 0.8 nM, the “free Ox elimination half-life in plasma” value turned out to be 41 ± 6 min and the “initial free Ox concentration in plasma” value worked out at 2.2 nM. In addition, the “decline of free Ox concentration in plasma compared with NQ11/7.12” value in data set [2] (Ox administered with NQ16/113.8 or NQ22/16.4) is “declined much more rapidly”. Also, the “free Ox concentration in plasma, long term buffering” value in data set [2] (Ox alone re-administered at 24 hours and 48 hours after a single NQ11/7.12 + Ox infusion) is “quickly normalized”. For the same molecule, the “fraction of unbuffered Ox eliminated from plasma before the first timepoint” value in data set [2] (Ox without anti-Ox antibody) is listed as “more than half”.
